Measurements: ChEMBL document CHEMBL1137914, “Optimizing the antibacterial activity of a lead structure discovered by "SAR by MS" technology” (Bioorg Med Chem Lett, 2004)

Assays:
[1] = tested on: Escherichia coli; assay: Antibacterial activity against Escherichia coli was determined at 100 uM; assay type: functional
[2] = tested on: Escherichia coli; assay: (§1) In vitro dissociation constant of compound required for inhibition of Escherichia coli translation was determined; assay type: functional, organism-based
[3] = tested on: Escherichia coli; assay: In vitro dissociation constant of compound required for inhibition of Escherichia coli translation by 50% was determined; assay type: functional
[4] = tested on: Staphylococcus aureus; assay: Antibacterial activity against Staphylococcus aureus was determined at 100 uM; assay type: functional
[5] = tested on: Escherichia coli; assay: as §1; assay type: functional
[6] = tested on: Escherichia coli; assay: Minimal inhibitory concentration required against Escherichia coli ATCC 25922 was determined; values ranges from 6-13; assay type: functional
[7] = tested on: Staphylococcus aureus; assay: Minimal inhibitory concentration required against Staphylococcus aureus ATCC 13709 was determined; values ranges from […]; assay type: functional
[8] = tested on: Staphylococcus aureus; assay: Minimal inhibitory concentration required against Staphylococcus aureus ATCC 13709 was determined; assay type: functional
[9] = tested on: Escherichia coli; assay: Minimal inhibitory concentration required against Escherichia coli ATCC 25922 was determined; values ranges from 13-25; assay type: functional
[10] = tested on: Escherichia coli; assay: Minimal inhibitory concentration required against Escherichia coli ATCC 25922 was determined; values ranges from 25-50; assay type: functional
[11] = tested on: Staphylococcus aureus; assay: Minimal inhibitory concentration required against Staphylococcus aureus ATCC 13709 was determined; values ranges from 50-100; assay type: functional
[12] = tested on: Staphylococcus aureus; assay: Minimal inhibitory concentration required against Staphylococcus aureus ATCC 13709 was determined; values ranges from 3-6; assay type: functional
[13] = tested on: Proteus vulgaris; assay: Minimal inhibitory concentration required against Proteus vulgaris was determined; values ranges from 50-100
[14] = tested on: Enterococcus faecalis; assay: Minimal inhibitory concentration required against Enterococcus faecalis was determined; values ranges from 3-6
[15] = tested on: Streptococcus pyogenes; assay: Minimal inhibitory concentration required against Streptococcus pyogenes was determined; values ranges from 3-6

NCC[C@@H](NC(=O)c1ccc(-c2cccc(NC(=O)c3ccc4nc(O)c(O)nc4c3)c2)o1)C(=O)N1CCNCC1
inhibition at 100 µM [1]: < 75%
IC50 [2]: 14 µM
Kd [3]: 6.5 µM
inhibition at 100 µM [4]: < 75%

C=CCNC(=O)c1ccc2nc(O)c(O)nc2c1
Kd [5]: 150 µM

CN(C)CCCOc1ccc(C(NC(=O)c2ccc3nc(O)c(O)nc3c2)C(=O)N2CCNCC2)cc1 (configuration not stated)
inhibition at 100 µM [1]: < 75%
IC50 [2]: > 200 µM
inhibition at 100 µM [4]: < 75%

NCC[C@@H](NC(=O)c1ccc(-c2ccccc2)o1)C(=O)N1CCNCC1
Kd [5]: 50 µM

NCC[C@@H](NC(=O)c1ccc(-c2cccc(NC(=O)c3cnc4ccccc4c3)c2)o1)C(=O)N1CCNCC1
inhibition at 100 µM [1]: < 75%
IC50 [2]: 46 µM
inhibition at 100 µM [4]: < 75%

Cc1nc2ccc(C(=O)Nc3cccc(-c4ccc(C(=O)NC(C(=O)N5CCNCC5)c5ccc(OCCCN(C)C)cc5)o4)c3)cc2nc1C (configuration not stated)
inhibition at 100 µM [1]: < 75%
IC50 [2]: 1 µM
inhibition at 100 µM [4]: < 75%

CN(C)CCCOc1ccc(C(NC(=O)c2ccc(-c3cccc(N)c3)o2)C(=O)N2CCNCC2)cc1 (configuration not stated)
inhibition at 100 µM [1]: < 75%
IC50 [2]: > 100 µM
inhibition at 100 µM [4]: < 75%

CN(C)CCCOc1ccc(C(NC(=O)c2ccc(-c3cccc(NC(=O)C4CCCCC4)c3)o2)C(=O)N2CCNCC2)cc1 (configuration not stated)
inhibition at 100 µM [1]: < 75%
IC50 [2]: > 100 µM
inhibition at 100 µM [4]: < 75%

CN(C)CCCOc1ccc(C(NC(=O)c2ccc(-c3cccc(NC(=O)c4ccc5cc(Br)ccc5c4)c3)o2)C(=O)N2CCNCC2)cc1 (configuration not stated)
MIC [6]: < 13 µM
IC50 [2]: 5 µM
MIC [7]: < 25 µM

CCc1c(C)nc2ccc(C(=O)Nc3cccc(-c4ccc(C(=O)NC(C(=O)N5CCNCC5)c5ccc(OCCCN(C)C)cc5)o4)c3)cc2c1Cl (configuration not stated)
MIC [8]: > 100 µM
IC50 [2]: 0.78 µM
MIC [9]: < 25 µM

CN(C)CCCOc1ccc(C(NC(=O)c2ccc(-c3cccc(NC(=O)c4ccccc4)c3)o2)C(=O)N2CCNCC2)cc1 (configuration not stated)
inhibition at 100 µM [1]: < 75%
IC50 [2]: 40 µM
inhibition at 100 µM [4]: < 75%

CN(C)CCCOc1ccc(C(NC(=O)c2ccc(-c3cccc(NC(=O)c4ccc5nc(O)c(O)nc5c4)c3)o2)C(=O)N2CCNCC2)cc1 (configuration not stated)
inhibition at 100 µM [1]: < 75%
IC50 [2]: 3 µM
inhibition at 100 µM [4]: < 75%

CN(C)CCCOc1ccc(C(NC(=O)c2ccc(-c3cccc(NS(=O)(=O)c4ccc5nc(O)c(O)nc5c4)c3)o2)C(=O)N2CCNCC2)cc1 (configuration not stated)
inhibition at 100 µM [1]: < 75%
IC50 [2]: 33 µM
inhibition at 100 µM [4]: < 75%

CN(C)CCCC(=O)Nc1cccc(-c2ccc(C(=O)N[C@H](CCN)C(=O)N3CCNCC3)o2)c1
inhibition at 100 µM [1]: < 75%
IC50 [2]: > 100 µM
inhibition at 100 µM [4]: < 75%

CN(C)CCCOc1ccc(C(NC(=O)c2ccc(-c3cccc(NC(=O)c4ccc5ccccc5c4)c3)o2)C(=O)N2CCNCC2)cc1 (configuration not stated)
MIC [10]: < 50 µM
IC50 [2]: 10 µM
MIC [11]: < 100 µM

NCC[C@@H](NC(=O)c1ccc(-c2cccc(NC(=O)c3ccccn3)c2)o1)C(=O)N1CCNCC1
inhibition at 100 µM [1]: < 75%
IC50 [2]: > 100 µM
inhibition at 100 µM [4]: < 75%

NCC[C@@H](NC(=O)c1ccc(-c2cccc(N)c2)o1)C(=O)N1CCNCC1
inhibition at 100 µM [1]: < 75%
IC50 [2]: > 100 µM
inhibition at 100 µM [4]: < 75%

NCC[C@@H](NC(=O)c1ccc(-c2cccc(NC(=O)c3nncs3)c2)o1)C(=O)N1CCNCC1
inhibition at 100 µM [1]: < 75%
IC50 [2]: > 100 µM
inhibition at 100 µM [4]: < 75%

Cc1nc2ccc(C(=O)Nc3cccc(-c4ccc(C(=O)N[C@H](CCN)C(=O)N5CCNCC5)o4)c3)cc2nc1C
inhibition at 100 µM [1]: < 75%
IC50 [2]: 15 µM
inhibition at 100 µM [4]: < 75%

CN(C)CCCOc1ccc(C(NC(=O)c2ccc(-c3cccc(NC(=O)c4ccccc4I)c3)o2)C(=O)N2CCNCC2)cc1 (configuration not stated)
inhibition at 100 µM [1]: < 75%
IC50 [2]: 38 µM
inhibition at 100 µM [4]: < 75%

CN(C)CCCOc1ccc(C(NC(=O)c2ccc(-c3cccc(NC(=O)c4cnc5ccccc5c4)c3)o2)C(=O)N2CCNCC2)cc1 (configuration not stated)
inhibition at 100 µM [1]: < 75%
IC50 [2]: 5 µM
inhibition at 100 µM [4]: < 75%

Cc1cc(Cl)c2cc(C(=O)Nc3cccc(-c4ccc(C(=O)NC(C(=O)N5CCNCC5)c5ccc(OCCCN(C)C)cc5)o4)c3)ccc2n1 (configuration not stated)
inhibition at 100 µM [1]: < 75%
IC50 [2]: 2 µM
inhibition at 100 µM [4]: < 75%

NCC[C@@H](NC(=O)c1ccc(-c2cccc(NC(=O)c3cnccn3)c2)o1)C(=O)N1CCNCC1
inhibition at 100 µM [1]: < 75%
IC50 [2]: > 100 µM
inhibition at 100 µM [4]: < 75%

CN(C)CCCOc1ccc(C(NC(=O)c2ccc(-c3cccc(NC(=O)c4ccc5ncccc5c4)c3)o2)C(=O)N2CCNCC2)cc1 (configuration not stated)
inhibition at 100 µM [1]: < 75%
IC50 [2]: 6 µM
inhibition at 100 µM [4]: < 75%

CN(C)CCCOc1ccc(C(NC(=O)c2ccc(-c3cccc(NC(=O)c4ccccn4)c3)o2)C(=O)N2CCNCC2)cc1 (configuration not stated)
inhibition at 100 µM [1]: < 75%
IC50 [2]: 20 µM
inhibition at 100 µM [4]: < 75%

CN(C)CCCOc1ccc(C(NC(=O)c2ccc(-c3cccc(NC(=O)CCCN(C)C)c3)o2)C(=O)N2CCNCC2)cc1 (configuration not stated)
inhibition at 100 µM [1]: < 75%
IC50 [2]: > 100 µM
inhibition at 100 µM [4]: < 75%

CN(C)CCCOc1ccc(C(NC(=O)c2ccc(-c3cccc(NC(=O)c4cnccn4)c3)o2)C(=O)N2CCNCC2)cc1 (configuration not stated)
inhibition at 100 µM [1]: < 75%
IC50 [2]: 15 µM
inhibition at 100 µM [4]: < 75%

CN(C)CCCOc1ccc(C(NC(=O)c2ccc(-c3cccc(NC(=O)c4ccc5nc(O)c(O)nc5c4)c3)o2)C(N)=O)cc1 (configuration not stated)
inhibition at 100 µM [1]: < 75%
IC50 [2]: 10 µM
inhibition at 100 µM [4]: < 75%

CC(=O)Nc1cccc(-c2ccc(C(=O)NC(C(=O)N3CCNCC3)c3ccc(OCCCN(C)C)cc3)o2)c1 (configuration not stated)
inhibition at 100 µM [1]: < 75%
IC50 [2]: > 100 µM
inhibition at 100 µM [4]: < 75%

NCC[C@@H](NC(=O)c1ccc(-c2cccc(NS(=O)(=O)c3ccc4nc(O)c(O)nc4c3)c2)o1)C(=O)N1CCNCC1
inhibition at 100 µM [1]: < 75%
IC50 [2]: > 100 µM
inhibition at 100 µM [4]: < 75%

CN(C)CCCOc1ccc(C(NC(=O)c2ccc(-c3cccc(NC(=O)c4ccc(-c5ccccc5)cc4)c3)o2)C(=O)N2CCNCC2)cc1 (configuration not stated)
MIC [6]: < 13 µM
IC50 [2]: 9 µM
MIC [12]: < 6 µM
MIC [13]: < 100 µM
MIC [14]: < 6 µM
MIC [15]: < 6 µM

CN(C)CCCOc1ccc(C(NC(=O)c2ccc(-c3cccc(NC(=O)c4nncs4)c3)o2)C(=O)N2CCNCC2)cc1 (configuration not stated)
inhibition at 100 µM [1]: < 75%
IC50 [2]: 13 µM
inhibition at 100 µM [4]: < 75%

CN(C)CCCOc1ccc(C(NC(=O)c2ccc(-c3cccc(NC(=O)c4ccc(Br)cc4)c3)o2)C(=O)N2CCNCC2)cc1 (configuration not stated)
MIC [6]: < 13 µM
IC50 [2]: 5 µM
MIC [7]: < 25 µM

CN(C)CCCOc1ccc(C(NC(=O)c2ccc(-c3cccc(NC(=O)c4ccc(Cl)c(Cl)c4)c3)o2)C(=O)N2CCNCC2)cc1 (configuration not stated)
inhibition at 100 µM [1]: < 75%
IC50 [2]: 4 µM
inhibition at 100 µM [4]: < 75%
